Experimental data taken from ChEMBL document CHEMBL1137640, “In vitro antimycobacterial spectrum of a diarylquinoline ATP synthase inhibitor” (2007).
Converted amounts (≈) assume the structure as drawn.

System: Mycobacterium tuberculosis
Assay: Antimicrobial activity against multidrug-resistant Mycobacterium tuberculosis isolate after 2 to 4 weeks by two fold dilution method
Type: functional

**Q.** `COc1nc2ccc(Br)cc2cc1[C@@H](c1ccccc1)[C@@](O)(CCN(C)C)c1cccc2ccccc12` [BEDAQUILINE] was tested. Which MIC did it give?
**A.** 0.004 µg/mL (≈ 0.0072 µM)

**Q.** What about the MIC50 of the same compound?
**A.** 0.03 µg/mL (≈ 0.054 µM)

**Q.** And the MIC90?
**A.** 0.06 µg/mL (≈ 0.108 µM)
